From patent US20100279990A1, “ANTIPROLIFERATIVE COMPOUNDS, COMPOSITIONS AND METHODS OF USE” (RAMOT AT TEL-AVIV UNIVERSITY LTD., priority 2006, published 2010)

Columns and labels:
[1] = tested on: Con-A activated naive mouse splenocytes; assay: Con-A-induced mouse splenocyte proliferation, alamar blue staining; format: cell-based; conditions: Splenocyte, 48 hr, alamar blue, read-out: IC50, inhibition in cell viability
Source text: This example illustrates cell viability data obtained by separately administering different concentrations of compound (Ia), paroxetine, citalopram, and ecitalopram to Con-A activated naive mouse splenocytes. FIG. 3A depicts the comparative effect of compound (Ia), paroxetine, citalopram and ecitalopram on Con-A-induced mouse splenocyte proliferation using alamar blue staining after 48 hr. Each point represents the mean+/−SE of 5 determinations.

[2] = tested on: PHA activated healthy human T cells; assay: PHA induced proliferation of healthy human lymphocytes, alamar blue; format: cell-based
[3] = tested on: resistant colon carcinoma LS1034 cell-line; assay: Viability of resistant colon carcinoma LS1034 cell-line (FIG. 7A); format: cell-based; conditions: LS-1034, read-out: IC50, inhibition of cell viability
Source text: This example illustrates cell viability data obtained by separately administering different concentrations of compound (Ia), sertraline, paroxetine, and doxorubicin to a […] resistant colon carcinoma LS1034 cell-line. The results are depicted in FIG. 7A.

[4] = tested on: Caspase 3 activity of LS1034 human colon MDR carcinoma cells; assay: Caspase-3 activity in LS1034 human colon MDR carcinoma cells; format: cell-based; conditions: 10 or 20 μM, 4 hr after exposure
Procedure: Caspase 3 activity was measured by an enzymatic fluorimetric method using a fluorigenic substrate (Ac-DEVD-AMC), which produces blue fluorescence detected at 360 nm wavelength. […] When AMC is cleaved from the substrate by caspase-3, and caspase-3-like enzymes, it produces a yellow-green fluorescence, which can be monitored by a fluorimeter at 460 nm. The amount of yellow green fluorescence is proportional to the activity of caspase-3 in the cell extract sample.
Whole cell lysate was added to a buffer containing 100 μM peptide substrate, 100 mM HEPES, 10% glycerol, 1 mM EDTA and 10 mM dithiothreitol. Measurements were taken every 5 min for 80 min. These experiments were also monitored in the presence of a specific caspase-3 inhibitor, DEVD-AMC-CHO, which was added after 45 or 60 min to the reaction mixture, to ascertain the specificity of the enzyme.

[5] = tested on: BXF T24; assay: Monolayer Assay, PI: BXF T24 (Bladder); format: cell-based, human
Source text: (§1) This example illustrates cell proliferation data in the form of IC50, IC70 and IC90 values obtained by exposure of human cancer cell-lines to compound (Ia). […].

[6] = tested on: LXF 1121L; assay: Monolayer Assay, PI: LXF 1121L (Lung); format: cell-based, human
Source text: as §1

[7] = tested on: LXF 289L; assay: Monolayer Assay, PI: LXF 289L (Lung); format: cell-based, human
Source text: as §1

[8] = tested on: LXF 629L; assay: Monolayer Assay, PI: LXF 629L (Lung); format: cell-based, human
Source text: as §1

[9] = tested on: LXF H460; assay: Monolayer Assay, PI: LXF H460 (Lung); format: cell-based, human
Source text: as §1

[10] = tested on: OVXF OVCAR3; assay: Monolayer Assay, PI: OVXF OVCAR3 (Ovarian Cancer); format: cell-based, human
Source text: as §1

[11] = tested on: PRXF 22RV1; assay: Monolayer Assay, PI: PRXF 22RV1 (Prostate); format: cell-based, human
Source text: as §1

[12] = tested on: PRXF LNCAP; assay: Monolayer Assay, PI: PRXF LNCAP (Prostate); format: cell-based, human
Source text: as §1

[13] = tested on: RXF 1781L; assay: Monolayer Assay, PI: RXF 1781L (Renal); format: cell-based, human
Source text: as §1

[14] = tested on: human colon carcinoma cells (HT29); assay: cells

## CN[C@H]1CC[C@@H](c2ccc(Cl)c(Cl)c2)c2ccc(C#CCCCO)cc21 [compound (Ia), (1S-cis)-4-(3,4-dichlorophenyl)-7-(5-hydroxy-1-pentyn-1-yl)-1,2,3,4-tetrahydro-N-methyl-1-naphthalenamine hydroiodide]
[1]
  IC50: 3.9 µM
[2]
  potency relative to sertraline: about 3 times
[2]; T-cell, 48 hr, alamar blue
  IC50: 9.8 µM
[3]
  IC50: 11.3 µM
[4]
  caspase-3 activity: dose dependent increase in the activity of caspase-3
[5]; 2.3 μg/ml
  Test/Control (%): 93%
  Test/Control activity class: − (− (T/C = 50))
[5]; 7.5 μg/ml
  Test/Control (%): 53%
  Test/Control activity class: − (− (T/C = 50))
[5]; 23. μg/ml
  Test/Control (%): 2%
  Test/Control activity class: +++ (+++ (T/C < 10))
[5]; 75. μg/ml
  Test/Control (%): 2%
  Test/Control activity class: +++ (+++ (T/C < 10))
[5]; .75 μg/ml
  Test/Control (%): 88%
  Test/Control activity class: − (− (T/C = 50))
[6]; 2.3 μg/ml
  Test/Control (%): 104%
  Test/Control activity class: − (− (T/C = 50))
[6]; 7.5 μg/ml
  Test/Control (%): 72%
  Test/Control activity class: − (− (T/C = 50))
[6]; 23. μg/ml
  Test/Control (%): 2%
  Test/Control activity class: +++ (+++ (T/C < 10))
[6]; 75. μg/ml
  Test/Control (%): 1%
  Test/Control activity class: +++ (+++ (T/C < 10))
[6]; .75 μg/ml
  Test/Control (%): 103%
  Test/Control activity class: − (− (T/C = 50))
[7]; 2.3 μg/ml
  Test/Control (%): 101%
  Test/Control activity class: − (− (T/C = 50))
[7]; 7.5 μg/ml
  Test/Control (%): 42%
  Test/Control activity class: + (+ (30 <= T/C < 50))
[7]; 23. μg/ml
  Test/Control (%): 4%
  Test/Control activity class: +++ (+++ (T/C < 10))
[7]; 75. μg/ml
  Test/Control (%): 3%
  Test/Control activity class: +++ (+++ (T/C < 10))
[7]; .75 μg/ml
  Test/Control (%): 94%
  Test/Control activity class: − (− (T/C = 50))
[8]; 2.3 μg/ml
  Test/Control (%): 94%
  Test/Control activity class: − (− (T/C = 50))
[8]; 7.5 μg/ml
  Test/Control (%): 4%
  Test/Control activity class: +++ (+++ (T/C < 10))
[8]; 23. μg/ml
  Test/Control (%): 1%
  Test/Control activity class: +++ (+++ (T/C < 10))
[8]; 75. μg/ml
  Test/Control (%): 2%
  Test/Control activity class: +++ (+++ (T/C < 10))
[8]; .75 μg/ml
  Test/Control (%): 99%
  Test/Control activity class: − (− (T/C = 50))
[9]; 2.3 μg/ml
  Test/Control (%): 95%
  Test/Control activity class: − (− (T/C = 50))
[9]; 7.5 μg/ml
  Test/Control (%): 2%
  Test/Control activity class: +++ (+++ (T/C < 10))
[9]; 23. μg/ml
  Test/Control (%): 1%
  Test/Control activity class: +++ (+++ (T/C < 10))
[9]; 75. μg/ml
  Test/Control (%): 1%
  Test/Control activity class: +++ (+++ (T/C < 10))
[9]; .75 μg/ml
  Test/Control (%): 101%
  Test/Control activity class: − (− (T/C = 50))
[10]; 2.3 μg/ml
  Test/Control (%): 103%
  Test/Control activity class: − (− (T/C = 50))
[10]; 7.5 μg/ml
  Test/Control (%): 78%
  Test/Control activity class: − (− (T/C = 50))
[10]; 23. μg/ml
  Test/Control (%): 4%
  Test/Control activity class: +++ (+++ (T/C < 10))
[10]; 75. μg/ml
  Test/Control (%): 5%
  Test/Control activity class: +++ (+++ (T/C < 10))
[10]; .75 μg/ml
  Test/Control (%): 109%
  Test/Control activity class: − (− (T/C = 50))
[11]; 2.3 μg/ml
  Test/Control (%): 80%
  Test/Control activity class: − (− (T/C = 50))
[11]; 7.5 μg/ml
  Test/Control (%): 24%
  Test/Control activity class: ++ (++ (10 <= T/C < 30))
[11]; 23. μg/ml
  Test/Control (%): 2%
  Test/Control activity class: +++ (+++ (T/C < 10))
[11]; 75. μg/ml
  Test/Control (%): 2%
  Test/Control activity class: +++ (+++ (T/C < 10))
[11]; .75 μg/ml
  Test/Control (%): 85%
  Test/Control activity class: − (− (T/C = 50))
[12]; 2.3 μg/ml
  Test/Control (%): 56%
  Test/Control activity class: − (− (T/C = 50))
[12]; 7.5 μg/ml
  Test/Control (%): 4%
  Test/Control activity class: +++ (+++ (T/C < 10))
[12]; 23. μg/ml
  Test/Control (%): 3%
  Test/Control activity class: +++ (+++ (T/C < 10))
[12]; 75. μg/ml
  Test/Control (%): 3%
  Test/Control activity class: +++ (+++ (T/C < 10))
[12]; .75 μg/ml
  Test/Control (%): 78%
  Test/Control activity class: − (− (T/C = 50))
[13]; 2.3 μg/ml
  Test/Control (%): 76%
  Test/Control activity class: − (− (T/C = 50))
[13]; 7.5 μg/ml
  Test/Control (%): 4%
  Test/Control activity class: +++ (+++ (T/C < 10))
[13]; 23. μg/ml
  Test/Control (%): 3%
  Test/Control activity class: +++ (+++ (T/C < 10))
[13]; 75. μg/ml
  Test/Control (%): 3%
  Test/Control activity class: +++ (+++ (T/C < 10))
[13]; .75 μg/ml
  Test/Control (%): 96%
  Test/Control activity class: − (− (T/C = 50))
[14]; HT-29, read-out: IC50, viability
  IC50: 12.7 µM
[14]; HT-29, read-out: cell viability
  viability at 30 µM: 30.9%
